Data on two compounds can be found in paper PMC12124671, “Drug repurposing reveals posaconazole as a CYP11A1 inhibitor enhancing anti-tumor immunity” (iScience, 2025).

For orientation: IC50 means the midpoint of a concentration-inhibition curve. Read a high IC50 as a need for much substance.

Experiment [1] has as its target T1, CYP11A1 (Mus musculus, UniProt Q9QZ82).
T1 sequence (Q9QZ82 37-526): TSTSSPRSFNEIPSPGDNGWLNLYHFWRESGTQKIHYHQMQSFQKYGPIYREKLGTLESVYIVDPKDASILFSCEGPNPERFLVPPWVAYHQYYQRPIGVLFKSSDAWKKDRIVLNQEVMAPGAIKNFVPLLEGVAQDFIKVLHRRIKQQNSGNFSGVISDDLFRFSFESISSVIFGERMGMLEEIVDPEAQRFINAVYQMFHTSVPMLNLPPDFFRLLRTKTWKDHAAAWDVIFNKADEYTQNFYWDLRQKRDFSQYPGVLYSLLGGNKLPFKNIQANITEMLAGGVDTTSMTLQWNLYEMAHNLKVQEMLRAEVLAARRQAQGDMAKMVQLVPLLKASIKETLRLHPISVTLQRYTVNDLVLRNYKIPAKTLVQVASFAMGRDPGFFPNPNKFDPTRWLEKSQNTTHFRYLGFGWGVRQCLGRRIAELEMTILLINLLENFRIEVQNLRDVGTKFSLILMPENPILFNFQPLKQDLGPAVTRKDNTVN
Description: pregnenolone ELISA in murine Th2 cells (endogenous Cyp11a1), reference inhibitor, […] h dose response. The class given is cell-based. (In general: ELISA stands for enzyme-linked immunosorbent assay.)

Experiment [2] has as its target T1, CYP11A1. Description: pregnenolone ELISA in murine Th2 cells (endogenous Cyp11a1), dose response. The class given is cell-based.

In turn, `CCC1(c2ccc(N)cc2)CCC(=O)NC1=O` (centres unmarked) [aminoglutethimide] displayed a concentration for half-maximal inhibition (IC50) at CYP11A1 [1] of 1080 nM.

As to `CC[C@@H]([C@H](C)O)n1ncn(-c2ccc(N3CCN(c4ccc(OC[C@@H]5CO[C@@](Cn6cncn6)(c6ccc(F)cc6F)C5)cc4)CC3)cc2)c1=O` [posaconazole], at CYP11A1 [2], the IC50 was 218 nM.
